{"source": "patent US20230392180A1", "about": "“MICROSCOPIC IMAGING AND ANALYSES OF EPIGENETIC LANDSCAPE” (Sanford Burnham Prebys Medical Discovery Institute, priority 2020, published 2023)", "key": {"C57BL/6J male mice": {"tested_on": "C57BL/6J male mice", "experiment": "miBioAge (MIEL-CLOCK) after doxorubicin injection", "type": "in vivo", "procedure": "This can be shown by employing classical treatments such as doxorubicin (DOX), paclitaxel (PTX), or temozolomide (TMZ), known to promote hallmarks of aging to compare miBioAge readouts in blood (PBMC and CD3+ cells) and liver hepatocytes to chronologically matched untreated controls. Blood was collected on day 0 (retro-orbital) from 3-month old C57BL/6J male mice and 22-month old C57BL/6J male mice. On day 1, doxorubicin was injected into the experimental mice. All controls received PBS injection. Blood was collected on day 20 (retro-orbital) from all mice and liver hepatocytes on day 21. Cells were analyzed 21 days after treatment to avoid the effects of acute stress response and favor the aging-related phenomena."}, "[1]": {"experiment": "Variance of chromatin and epigenetic landscape (VITA) score", "type": "in vivo, mice", "details": "after treatment", "description": "In some instances, in addition to computing the values of individual cell nucelli in multidimensional space of statistical texture features, coefficient of variance (CV) is used, defined as the ratio of the standard deviation a sigma to the mean p, namely. CV for each field of view, well, technical replicate, and biological replicate such organs tissues and cells from individual mice could be computed based on individual nuclei and the results are stable using 200-2000 nuclei per experimental replica (e.g., individual wells). […] This means that quantitatively CV can be informative values serving as a quantitative measurement of individual organ, tissue, or cell type from individual animals."}, "[2]": {"details": "female, human"}, "GBM2 cells [3]": {"tested_on": "GBM2 cells", "experiment": "RNAseq and transcriptomic analysis", "type": "cell-based, human", "procedure": "RNAseq and transcriptomic analysis: Total RNA was isolated from GBM2 cells using the RNeasy Kit (Qiagen), 0.5 ug total RNA was used for isolation of mRNAs and library preparation. Library preparation and sequencing was conducted by the SBP genomics core (Sanford-Burnham NCI Cancer Center Support Grant P30 CA030199). PolyA RNA was isolated using the NEBNext® Poly(A) mRNA Magnetic Isolation Module and barcoded libraries were made using the NEBNext® Ultra II™ Directional RNA Library Prep Kit for Illumina® (NEB, Ipswich MA). Libraries were pooled and single end sequenced (1X75) on the Illumina NextSeq 500 using the High output V2 kit (Illumina). Read data was processed in BaseSpace. Reads were aligned to Homo sapiens genome (hg19) using STAR aligner with default settings. Differential transcript expression was determined using the Cufflinks Cuffdiff package. Go term enrichment analysis was conducted using PANTHER v11 using all genes identified as differentially expressed following either serum or Bmp4 treatment. For heat maps showing fold change in expression the FPKM values in each population were divided by the average FPKM values of untreated GBM2. To highlight differences in expression levels between serum and Bmp4 treated GBM2 cells the FPKM values in each sample were z-scored. Zscore=(FPKMObservation−FPKMAverage)/FPKMSD (FPKMObservation−FPKM value obtain through sequencing; FPKMAverage−average of all FPKM values in all samples for a certain gene; FPKMSD−standard deviation of FPKM values for a certain gene). Heat maps were generated using Microsoft Excel conditional formatting function.\nCorrelation of transcriptomic and image-based profiles: Euclidean distance between untreated, serum or Bmp4 treated GBM2 cells (triplicates for each) was calculated using either transcriptomic data (FPKM) or texture features. Pearson's correlation coefficient (R) was transformed to a t-value using the formula (t=R×SQRT(N−2)/SQRT(1−R2) where N is the number of samples, and R is Pearson correlation coefficient, and the p-value was calculated using Excel tdist(t) function. For compound prioritization, the Euclidean distance between compound treated and serum or Bmp4 treated GBM2 cells was calculated based on either transcriptomic data (FPKM) or image features. The average distance to both serum and Bmp4 treatments was normalized to the average distance of untreated cells to serum and Bmp4.\nRNAseq and transcriptomic analysis: Total RNA was isolated from GBM2 cells using the RNeasy Kit (Qiagen), 0.25 μg total RNA was used to isolate mRNAs and for library preparation. Library preparation and sequencing were conducted by the SBP genomics core (Sanford-Burnham NCI Cancer Center Support Grant P30 CA030199). PolyA RNA was isolated using the NEBNext® Poly(A) mRNA Magnetic Isolation Module, and barcoded libraries were made using the NEBNext® Ultra II™ Directional RNA Library Prep Kit for Illumina® (NEB, Ipswich MA). Libraries were pooled and single-end sequenced (1×75) on the Illumina NextSeq 500 using the High-Output V2 kit (Illumina). Read data, processed in BaseSpace, were aligned to Homo sapiens genome (hg19) using STAR aligner with default settings. Differential transcript expression was determined using the Cufflinks Cuffdiff package. For heat maps showing fold change in expression, FPKM values in each HDACi-treated population were divided by the average FPKM values of DMSO-treated GBM2 and values shown as log 2 of the ratio. Go enrichment analysis was conducted using PANTHER v11 using all genes identified as differentially expressed following either serum or Bmp4 treatment. To highlight differences in expression levels between serum- and Bmp4-treated GBM2 cells, FPKM values in each sample were z-scored. Zscore=(FPKMObservation−FPKMAverage)/FPKMSD (FPKMObservation−FPKM value obtain through sequencing; FPKMAverage−average of all FPKM values in all samples for a certain gene; FPKMSD−standard deviation of FPKM values for a certain gene). […]"}, "GBM cell lines": {"tested_on": "GBM cell lines", "experiment": "Immunostaining of core transcription factors and GFAP after serum or Bmp4 treatment", "type": "cell-based, human", "procedure": "Differentiation treatment: For TPC differentiation treatments cells were cultured in DMEM:F12 Neurobasal media (1:1), 1% B27 supplement, 10% BIT 9500, 1 mM glutamine supplemented with either Bmp4 (100 ng/ml; R&D Systems) or FBS (10%).\nCell staining: Cells were rinsed with PBS and fixed in 4% paraformaldehyde in PBS for 10 min at room temperature. After blocking with PBSAT (2% BSA and 0.5% Triton X-100 in PBS) for 1 h at room temperature, the cells were incubated overnight at 4° C. with primary antibodies diluted in PBSAT. The primary antibodies are listed in Table 2, and the appropriate fluorochrome-conjugated secondary antibodies were used at 1:500 dilution. Nuclear co-staining was performed by incubating cells with Hoechst-33342 nuclear dye.\nMicroscopy and image analysis: Unless stated otherwise, for MIEL analysis cells were imaged on an Opera QEHS high-content screening system (PerkinElmer) using ×40 water immersion objectives. Images collected on the Opera were analyzed using Acapella 2.6 (PerkinElmer). […] Features of nuclear morphology, fluorescence intensity inter-channel co-localization, and texture features (Image moments, Haralick, Threshold Adjacency Statistics) were calculated using custom algorithms (scripts available from www.andrewslab.ca). […] Between 3 and 8 fields per well were acquired and analyzed using Acapella 2.6 (PerkinElmer). […]"}, "TPCs": {"tested_on": "TPCs", "experiment": "Growth rate of treated glioblastoma cells", "details": "3 days of serum or Bmp4 treatment"}, "H3K27ac and H3K27me3": {"tested_on": "H3K27ac and H3K27me3", "experiment": "H3K27ac and H3K27me3 immunofluorescence intensity", "type": "cell-based, human", "details": "GBM2, low concentrations (<30 μM), compared with Pan HDAC inhibitors TSA, SAHA"}, "GBM2 cells [4]": {"tested_on": "GBM2 cells", "experiment": "Epigenetic Drug Screening (MIEL)", "type": "cell-based, human", "source_text": "Data processing: The image features-based profile for each cell population (e.g., cell types, treatments, technical repetition) was represented using a vector (center of distribution vectors) in which every element is the average value of all cells in that population for a particular feature. The vector's length is given by the number of features chosen (262 per histone modification). Raw feature values were normalized by z-scoring to the average and standard deviation of all populations being compared. All cells in each population were used to calculate center vectors, and each population contained at least 50 cells. Activity level for each drug was determined by calculating the distance from DMSO. […] Euclidean distance of each compound and each DMSO replicate to the DMSO center vector was calculated. Distances were z-scored to the average distance and standard deviation of DMSO replicates from the DMSO center vector. Transcriptomic-based profile for each cell population was represented using a vector in which every element is the z-scored FPKM value for a single gene in that population. […] Raw feature values for all center vectors of all populations in each plate were normalized to the plate-wise DMSO vector; normalized feature values were z-scored as above. […] Activity levels were calculated as above. […] Cell counts were z-scored against the average and standard deviation of all DMSO replicates. […]"}}, "note": "Entries after “also recorded” stand apart in the source; their conditions may differ.", "data": [{"molecule": "COc1cccc2c1C(=O)c1c(O)c3c(c(O)c1C2=O)C[C@@](O)(C(=O)CO)C[C@@H]3O[C@H]1C[C@H](N)[C@H](O)[C@H](C)O1", "note": "[DOX, doxorubicin]", "values": [{"measurement": "miBioAge distance", "setting": "C57BL/6J male mice; 3-month, compared to 3-month control", "value": "increases"}, {"measurement": "miBioAge signatures in CD3+ cells", "setting": "C57BL/6J male mice; blood collected on day 20", "value": "trend shift"}, {"measurement": "miBioAge signatures in PBMC", "setting": "C57BL/6J male mice; blood collected on day 20", "value": "trend shift"}, {"measurement": "miBioAge signatures in liver hepatocytes", "setting": "C57BL/6J male mice; cells analyzed 21 days after treatment", "value": "towards the old age"}, {"measurement": "VITA score", "setting": "[1]", "value": "trend for the increase; also recorded: increases"}]}, {"molecule": "Oc1ccc(O)cc1", "note": "[Hydroquinone]", "values": [{"measurement": "estimated concentrations reached following repeated administration", "setting": "[2]", "value": "~10", "unit": "µM"}]}, {"molecule": "CC(=O)S[C@@H]1CC2=CC(=O)CC[C@]2(C)[C@H]2CC[C@@]3(C)[C@@H](CC[C@@]34CCC(=O)O4)[C@H]12", "note": "[spironolactone]", "values": [{"measurement": "estimated concentrations reached following repeated administration", "setting": "[2]", "value": "~10", "unit": "µM"}]}, {"molecule": "Bmp4: Bmp4 (100 ng/ml; R&D Systems), positive control inducing TPC differentiation", "values": [{"measurement": "expression of most genes of the transcriptomic stemness signature", "setting": "GBM2 cells [3]; GBM2, 3 days treatment, vs untreated cells", "value": "reduced"}, {"measurement": "GFAP expression", "setting": "GBM cell lines", "value": "increased"}, {"measurement": "expression of transcription factors Sox2, Sall2, Brn2 and Olig2", "setting": "GBM cell lines; 3 days treatment, cell line dependent", "value": "down regulated; also recorded: downregulated"}, {"measurement": "growth rate of TPCs", "setting": "TPCs", "value": "reduced; also recorded: attenuate"}]}, {"molecule": "CCCC(CCC)C(=O)O", "note": "[valproic acid]", "values": [{"measurement": "H3K27ac and H3K27me3 immunofluorescence intensity", "setting": "H3K27ac and H3K27me3", "value": "no increase in histone acetylation or decrease in histone methylation"}, {"measurement": "transcriptomic changes (genes altered vs DMSO)", "setting": "GBM2 cells [3]; GBM2, 24 hours, valproic acid 15 μM", "value": "not reflected"}, {"measurement": "functional classification by discriminant analysis (MIEL)", "setting": "GBM2 cells [4]; 10 μM, 24 hours, 85 compounds", "value": "active but were misclassified"}, {"measurement": "epigenetic changes detected by MIEL", "setting": "GBM2 cells [4]; 24-hour treatment, low concentrations (<30 μM)", "value": "detectable epigenetic changes"}]}]}
